Reference: ChEMBL document CHEMBL1201862, “PubChem BioAssay data set” (2004)
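1) Cells in 96-well plates. 2) Compound, 48 h, 5 concentrations. 3) Linear interpolation between surrounding doses. 4) Unreached endpoint = highest concentration. At the GI50, growth is halved.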 Active and inactive are the calls of the source. Rule as the data show it: active = GI50 up to about 1.1 µM and inactive = higher.

Assays:
Test in all cases: growth of human tumour cells (NCI), 48 h
SK-MEL-28 = test system: SK-MEL-28
786-0 = test system: 786-0
SN12C = test system: SN12C
MDA-MB-435 = test system: MDA-MB-435
TK-10 = test system: TK-10
SF-295 = test system: SF-295
UO-31 = test system: UO-31
K562 = test system: K562
NCI-H23 = test system: NCI-H23
SK-MEL-5 = test system: SK-MEL-5
T47D = test system: T47D
SR = test system: SR
M14 = test system: M14
LOX IMVI = test system: LOX IMVI
HCT-15 = test system: HCT-15
OVCAR-4 = test system: OVCAR-4
DU-145 = test system: DU-145
Hs-578T = test system: Hs-578T
Malme-3M = test system: Malme-3M

Row | SMILES | GI50 (SK-MEL-28) | GI50 (786-0) | GI50 (SN12C) | GI50 (MDA-MB-435) | GI50 (TK-10) | GI50 (SF-295) | GI50 (UO-31) | GI50 (K562) | GI50 (NCI-H23) | GI50 (SK-MEL-5) | GI50 (T47D) | GI50 (SR) | GI50 (M14) | GI50 (LOX IMVI) | GI50 (HCT-15) [µM] | GI50 (OVCAR-4) | GI50 (DU-145) | GI50 (Hs-578T) | GI50 (Malme-3M)
1 | O=C(O)C(CCc1ccccc1)N1C(=O)c2ccccc2C1=O (centres undefined) | > 100 µM (inactive) | > 100 µM (inactive) | > 100 µM (inactive) | > 100 µM (inactive) | > 100 µM (inactive) | > 100 µM (inactive) | > 100 µM (inactive) | > 100 µM (inactive) | > 100 µM (inactive) | > 100 µM (inactive) | > 100 µM (inactive) | > 100 µM (inactive) | > 100 µM (inactive) | > 100 µM (inactive) | > 100 | > 100 µM (inactive) | > 100 µM (inactive) |  | 
2 | Oc1c(OCc2nnc(CCCCCCCCc3nnc(COc4ccc5ccccc5c4O)n3Nc3ccccc3)n2Nc2ccccc2)ccc2ccccc12 | 2.07 µM (inactive) | 13.3 µM (inactive) | 13.9 µM (inactive) | 2.46 µM (inactive) | 11.1 µM (inactive) | 0.301 µM (active) | 2.58 µM (inactive) | 0.515 µM (active) | 8.69 µM (inactive) | 1.29 µM (inactive) | 6.43 µM (inactive) |  | 1.97 µM (inactive) |  | 11.4 | 5.42 µM (inactive) | 14.6 µM (inactive) | 8.17 µM (inactive) | 9.33 µM (inactive)
3 | CCC/C(Cl)=N\OC(=O)Nc1ccc(F)c([N+](=O)[O-])c1 | 18 µM (inactive) | 16.8 µM (inactive) | 27.2 µM (inactive) | 16.2 µM (inactive) | 17 µM (inactive) | 33.8 µM (inactive) | 13.7 µM (inactive) | 5.32 µM (inactive) | 12.9 µM (inactive) | 16.7 µM (inactive) |  |  | 14.7 µM (inactive) | 21.9 µM (inactive) | 16.9 | 15.6 µM (inactive) | 14.7 µM (inactive) |  | 10.9 µM (inactive)
4 | Cc1nc2cc(F)c(F)cc2[nH]c1=O | > 100 µM (inactive) | > 100 µM (inactive) | > 100 µM (inactive) | > 100 µM (inactive) | > 100 µM (inactive) | > 100 µM (inactive) | > 100 µM (inactive) | > 100 µM (inactive) | > 100 µM (inactive) | > 100 µM (inactive) | > 100 µM (inactive) |  | > 100 µM (inactive) | > 100 µM (inactive) | > 100 | > 100 µM (inactive) | > 100 µM (inactive) | 77.6 µM (inactive) | > 100 µM (inactive)
5 | Cc1cc2occ(S(=O)(=O)NC(=O)Nc3ccc(Cl)cc3)c(=O)c2c(=O)o1 | > 100 µM (inactive) | > 100 µM (inactive) | > 100 µM (inactive) | > 100 µM (inactive) | > 100 µM (inactive) | > 100 µM (inactive) | > 100 µM (inactive) | > 100 µM (inactive) | > 100 µM (inactive) | > 100 µM (inactive) | > 100 µM (inactive) |  | > 100 µM (inactive) | > 100 µM (inactive) | 9.18 | > 100 µM (inactive) | > 100 µM (inactive) | > 100 µM (inactive) | > 100 µM (inactive)
6 | CCOC(=O)CN1C(=O)NC(C)(c2ccccc2)C1=O (centres undefined) | > 100 µM (inactive) | > 100 µM (inactive) | > 100 µM (inactive) | > 100 µM (inactive) | > 100 µM (inactive) | > 100 µM (inactive) | > 100 µM (inactive) | > 100 µM (inactive) | > 100 µM (inactive) | > 100 µM (inactive) | > 100 µM (inactive) |  | > 100 µM (inactive) | > 100 µM (inactive) | > 100 | > 100 µM (inactive) | > 100 µM (inactive) | > 100 µM (inactive) | 
7 | O[C@H]1[C@H](O)[C@@H](O)[C@@]2(O)CC[C@@H]1N2 | > 100 µM (inactive) | > 100 µM (inactive) | > 100 µM (inactive) | > 100 µM (inactive) | > 100 µM (inactive) | > 100 µM (inactive) | > 100 µM (inactive) | > 100 µM (inactive) | > 100 µM (inactive) | > 100 µM (inactive) | > 100 µM (inactive) |  | > 100 µM (inactive) | > 100 µM (inactive) | > 100 | > 100 µM (inactive) | > 100 µM (inactive) | > 100 µM (inactive) | > 100 µM (inactive)
8 | CN1C(=O)CN=C(c2ccccc2F)c2cc(N=C=S)ccc21 |  | 43.8 µM (inactive) | 96.2 µM (inactive) | 35.9 µM (inactive) | 37.4 µM (inactive) | 52.8 µM (inactive) | 17.1 µM (inactive) |  | 62.4 µM (inactive) |  | 56.8 µM (inactive) |  | 52.1 µM (inactive) | 41.4 µM (inactive) | 35.8 | 35.4 µM (inactive) | 86.3 µM (inactive) | 61.7 µM (inactive) | > 100 µM (inactive)
9 | Nc1nc(Cl)cc(NCC2(CO)CC=CC2)n1 | > 100 µM (inactive) | > 100 µM (inactive) | > 100 µM (inactive) | > 100 µM (inactive) | > 100 µM (inactive) | > 100 µM (inactive) | > 100 µM (inactive) | > 100 µM (inactive) |  | 46.3 µM (inactive) | 47.1 µM (inactive) |  |  | > 100 µM (inactive) | > 100 | 80 µM (inactive) | > 100 µM (inactive) | > 100 µM (inactive) | > 100 µM (inactive)
10 | O=C(NNC(=S)Nc1ccccc1)c1csc(NC(=S)NC2CCCCC2)n1 |  | 68.7 µM (inactive) | 91.4 µM (inactive) | 35.5 µM (inactive) | > 100 µM (inactive) | > 100 µM (inactive) | 16.1 µM (inactive) | > 10 µM (inactive) | > 100 µM (inactive) | 17.4 µM (inactive) | 36.9 µM (inactive) | 49.5 µM (inactive) | 69.8 µM (inactive) | 26.6 µM (inactive) | 33.3 |  | > 100 µM (inactive) |  | > 100 µM (inactive)
11 | COC(=O)Cn1cnc2c(Cl)nc(Nc3ccccc3)nc21 | 27.4 µM (inactive) | > 100 µM (inactive) | 28.8 µM (inactive) | 26.7 µM (inactive) | > 100 µM (inactive) | > 100 µM (inactive) |  | 10.6 µM (inactive) |  | 39 µM (inactive) | > 100 µM (inactive) | 40.1 µM (inactive) | 29 µM (inactive) | 17.9 µM (inactive) | 21.4 | 87.3 µM (inactive) |  | 20.9 µM (inactive) | 54.3 µM (inactive)
12 | CC1(C)CC(=O)c2c(nc3c(ccc4ccccc43)c2-c2ccc(NC(=O)CCCCC(=O)Nc3ccc(-c4c5c(nc6c4ccc4ccccc46)CC(C)(C)CC5=O)cc3)cc2)C1 | 34 µM (inactive) | 42.2 µM (inactive) | 33.1 µM (inactive) | 26.2 µM (inactive) | 48.6 µM (inactive) | 19.6 µM (inactive) | 19.5 µM (inactive) | 30.8 µM (inactive) |  | 32.1 µM (inactive) | 22.6 µM (inactive) |  | 32.3 µM (inactive) | 17.6 µM (inactive) | 27.7 |  | 36.1 µM (inactive) | 32.1 µM (inactive) | 
13 | COC1=NC(NC2OCC(O)C(O)C2O)=C(NC(C)=O)CN1C (centres undefined) | > 100 µM (inactive) | > 100 µM (inactive) |  | > 100 µM (inactive) | > 100 µM (inactive) | > 100 µM (inactive) | > 100 µM (inactive) | > 100 µM (inactive) | > 100 µM (inactive) | > 100 µM (inactive) | > 100 µM (inactive) |  | > 100 µM (inactive) | > 100 µM (inactive) | > 100 | > 100 µM (inactive) | > 100 µM (inactive) | > 100 µM (inactive) | > 100 µM (inactive)
14 | COCO[C@@H]1C[C@H]2C(=O)N(COC)c3ccccc3C(=O)N2C1 | > 100 µM (inactive) | > 100 µM (inactive) | > 100 µM (inactive) | > 100 µM (inactive) | > 100 µM (inactive) | > 100 µM (inactive) | > 100 µM (inactive) |  | > 100 µM (inactive) | > 100 µM (inactive) | > 100 µM (inactive) |  | > 100 µM (inactive) | > 100 µM (inactive) | > 100 | > 100 µM (inactive) | > 100 µM (inactive) | > 100 µM (inactive) | > 100 µM (inactive)
15 | CCCC/N=C(/c1ccccc1)N1CCOCC1 | > 100 µM (inactive) | > 100 µM (inactive) | > 100 µM (inactive) | > 100 µM (inactive) | > 100 µM (inactive) | > 100 µM (inactive) | 97.7 µM (inactive) | > 100 µM (inactive) | > 100 µM (inactive) | > 100 µM (inactive) |  | > 100 µM (inactive) | > 100 µM (inactive) | > 100 µM (inactive) | > 100 |  | > 100 µM (inactive) | 87.1 µM (inactive) | 57.9 µM (inactive)
16 | C=C(Br)C(Br)(CCl)CCC(Cl)C(C)C.C=C(Cl)C(Br)(CCl)CCC(Cl)C(C)C (centres undefined) | 1.77 µM (inactive) | 1.36 µM (inactive) | 1.66 µM (inactive) | 1.93 µM (inactive) | 2.14 µM (inactive) | 6.92 µM (inactive) | 1.63 µM (inactive) | 0.684 µM (active) | 1.79 µM (inactive) | 1.82 µM (inactive) |  | 0.442 µM (active) | 1.89 µM (inactive) | 0.299 µM (active) |  | 1.94 µM (inactive) | 1.65 µM (inactive) | 2.49 µM (inactive) | 2.49 µM (inactive)
17 | Cc1cc(-c2nc3ccc(F)cc3s2)ccc1N | > 100 µM (inactive) | > 100 µM (inactive) | > 100 µM (inactive) | > 100 µM (inactive) | < 0.01 µM (active) | > 100 µM (inactive) | > 100 µM (inactive) | > 100 µM (inactive) | > 100 µM (inactive) | 41.4 µM (inactive) |  | > 100 µM (inactive) | > 100 µM (inactive) | > 100 µM (inactive) | > 100 |  | > 100 µM (inactive) | 37.2 µM (inactive) | > 100 µM (inactive)
